This note sets out measurements from ChEMBL document CHEMBL1201862, “PubChem BioAssay data set” (2004).

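Five concentrations, 48 hours, 96-well plates. At the GI50, growth is halved.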 Activity calls are given as the source filed them. Rule as the data show it: active = GI50 up to about 1.1 µM and inactive = higher. A value given as a limit tells only on which side of the number the result lay.

Some test systems named below: SF-295; UACC-62; EKVX; A549; SK-OV-3; SK-MEL-2; OVCAR-5; HOP-62; HCC 2998; SNB-19; MOLT-4; COLO 205; LOX IMVI; UO-31; CAKI-1; NCI-H460; Malme-3M; KM12; SK-MEL-5; CCRF-CEM.
Common to all, as to test: inhibition of tumour cell growth, NCI panel, 48 h

As for `COc1cc2c3c(n(C)c(=O)c2cc1OC)-c1cc2c(cc1C3=O)OCO2`, the GI50 in the assay on SF-295 was 0.871 µM (active); in the assay with UACC-62, 1.7 µM (inactive); with EKVX, 35.3 µM (inactive); in the assay with A549, 55.1 µM (inactive); in the assay with SK-OV-3 it was 11.3 µM (inactive); in the assay with SK-MEL-2, > 42 µM (inactive). Also, the GI50 in the assay with OVCAR-5 is 54 µM (inactive); in the assay with HOP-62, 1.87 µM (inactive); in the assay with HCC 2998, > 80.5 µM (inactive); in the assay with SNB-19, 27.1 µM (inactive); with MOLT-4 it was 0.44 µM (active); in the assay on COLO 205, > 100 µM (inactive). The GI50 with LOX IMVI was 8.59 µM (inactive); in the assay with UO-31 it was 1.63 µM (inactive); with CAKI-1 it was 4.98 µM (inactive); in the assay with NCI-H460, 0.596 µM (active); with Malme-3M, 67.5 µM (inactive); in the assay with KM12 it was > 100 µM (inactive). The GI50 was 9.2 µM (inactive) in the assay on SK-MEL-5 and 0.237 µM (active) in the assay with CCRF-CEM.
